This note sets out measurements from publication PMC10166855, “Tau activation of microglial cGAS–IFN reduces MEF2C-mediated cognitive resilience” (Nature neuroscience, 2023).

The assay concerns the target human cGAS (cyclic GMP–AMP synthase) (Homo sapiens, UniProt Q8N884). Kind of assay: cell-free cGAS activity assay, ATP depletion by Kinase-Glo luminescence. The format is biochemical. An excerpt:
cell-free cGAS activity assay, ATP depletion by Kinase-Glo luminescence on human cGAS (cyclic GMP–AMP synthase) | Dose-dependent inhibition of cGAS activity (as measured in a) in response to HT-DNA.
A general note: Kinase-Glo reads ATP consumption through a luciferase reaction.

The term IC50 denotes the concentration at which inhibition is half-maximal.

Chain of human cGAS (cyclic GMP–AMP synthase) (Q8N884 whole entry): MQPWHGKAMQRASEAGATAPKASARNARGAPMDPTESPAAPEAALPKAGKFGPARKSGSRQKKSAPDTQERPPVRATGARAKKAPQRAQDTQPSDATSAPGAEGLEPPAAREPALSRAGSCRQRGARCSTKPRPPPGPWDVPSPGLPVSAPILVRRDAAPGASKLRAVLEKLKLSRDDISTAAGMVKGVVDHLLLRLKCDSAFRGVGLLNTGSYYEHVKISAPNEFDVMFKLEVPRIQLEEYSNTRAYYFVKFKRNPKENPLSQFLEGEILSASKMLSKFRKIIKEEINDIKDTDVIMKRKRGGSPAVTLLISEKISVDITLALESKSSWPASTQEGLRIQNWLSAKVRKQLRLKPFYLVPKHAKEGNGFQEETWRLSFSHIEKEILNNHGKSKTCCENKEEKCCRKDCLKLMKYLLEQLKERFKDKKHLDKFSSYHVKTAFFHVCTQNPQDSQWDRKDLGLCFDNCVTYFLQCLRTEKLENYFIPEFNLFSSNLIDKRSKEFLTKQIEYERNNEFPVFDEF

TDI-8246 showed an IC50 of 81.2 nM.
